# According to ChEMBL document CHEMBL5365464, “Structure-Based Optimization of the Third Generation Type II Macrocycle TRK Inhibitors with Improved Activity against Solvent-Front, xDFG, and Gatekeeper Mutations” (J Med Chem, 2023):
# Assays:
# [1] = target: High affinity nerve growth factor receptor (Homo sapiens, UniProt P04629); test: Inhibition of N-terminal hexa his tagged TRKA (485 to 795 residues) (unknown origin) expressed in baculovirus expression system Sf9 cells using Ser/Thr 06 as peptide substrate incubated for 1 hr in presence of ATP by FRET based Z-LYTE assay
# [2] = target: High affinity nerve growth factor receptor (Homo sapiens, UniProt P04629, G667C); test: Inhibition of TRKA G667C mutant (unknown origin) expressed in baculovirus expression system Sf9 cells using Ser/Thr 06 as peptide substrate incubated for 1 hr in presence of ATP by FRET based Z-LYTE assay
# [3] = target: NT-3 growth factor receptor (Homo sapiens, UniProt Q16288); test: Inhibition of TRKC (unknown origin) using Ser/Thr 06 as peptide substrate incubated for 1 hr in presence of ATP by FRET based Z-LYTE assay
# BaF3 [4] = test: Antiproliferative activity against mouse BaF3 cells harbouring CD74-NTRK1 fusion protein incubated for 3 days by CCK8 method; conditions: BaF3, 72 h
# BaF3 [5] = test: Antiproliferative activity against mouse BaF3 cells harbouring CD74-NTRK1 G595R mutant fusion protein incubated for 3 days by CCK8 method; format: functional, cell-based; conditions: BaF3, 72 h
# BaF3 [6] = test: Antiproliferative activity against mouse BaF3 cells harbouring TRKA-F589L fusion protein incubated for 3 days by CCK8 method; conditions: BaF3, 72 h
# BaF3 [7] = test: cells; conditions: Mus musculus, BaF3, 72 h
# BaF3 [8] = test: Antiproliferative activity against mouse BaF3 cells harbouring CD74-[…] mutant fusion protein incubated for 3 days by CCK8 method; format: functional, cell-based; conditions: BaF3, 72 h
# BaF3 [9] = test: Antiproliferative activity against mouse BaF3 cells harbouring ETV6-NTRK3 fusion protein incubated for 3 days by CCK8 method; conditions: BaF3, 72 h
# [10] = target: High affinity nerve growth factor receptor (Homo sapiens, UniProt P04629, G595R); test: Inhibition of TRKA G595R mutant (unknown origin) expressed in baculovirus expression system Sf9 cells using Ser/Thr 06 as peptide substrate incubated for 1 hr in presence of ATP by FRET based Z-LYTE assay
# BaF3 [11] = test: Antiproliferative activity against mouse BaF3 cells harbouring CD74-TRKA V573M mutant incubated for 3 days by CCK8 method; conditions: BaF3, 72 h
# BaF3 [12] = test: Antiproliferative activity against mouse BaF3 cells harbouring ETV6-TRKB V617M mutant incubated for 3 days by CCK8 method; conditions: BaF3, 72 h
# BaF3 [13] = test: cells; conditions: Mus musculus, BaF3, 72 h; remark: listed apart in the source
# BaF3 [14] = test: Antiproliferative activity against mouse BaF3 cells harbouring ETV6-TRKB F633L mutant incubated for 3 days by CCK8 method; conditions: BaF3, 72 h
# BaF3 [15] = test: Antiproliferative activity against mouse BaF3 cells harbouring ETV6-TRKC F617L mutant incubated for 3 days by CCK8 method; conditions: BaF3, 72 h
# BaF3 [16] = test: Antiproliferative activity against mouse BaF3 cells harbouring ETV6-TRKC G623R mutant incubated for 3 days by CCK8 method; conditions: BaF3, 72 h
# BaF3 [17] = test: Antiproliferative activity against mouse BaF3 cells harbouring ETV6-TRKC G623E mutant incubated for 3 days by CCK8 method; conditions: BaF3, 72 h
# BaF3 [18] = test: Antiproliferative activity against mouse BaF3 cells harbouring ETV6-TRKC V601M mutant incubated for 3 days by CCK8 method; conditions: BaF3, 72 h
# BaF3 [19] = test: Antiproliferative activity against mouse BaF3 cells harbouring CD74-TRKA G6678 mutant incubated for 3 days by CCK8 method; conditions: BaF3, 72 h
# BaF3 [20] = test: Antiproliferative activity against mouse BaF3 cells incubated for 3 days by CCK8 method; conditions: BaF3, 72 h
# BaF3 [21] = test: Antiproliferative activity against mouse BaF3 cells harbouring ETV6-TRKB G639R mutant incubated for 3 days by CCK8 method; conditions: BaF3, 72 h
# BaF3 [22] = test: Antiproliferative activity against mouse BaF3 cells harbouring CD74-TRKA G667A mutant incubated for 3 days by CCK8 method; conditions: BaF3, 72 h
# BaF3 [23] = test: cells; conditions: Mus musculus, BaF3, 72 h; remark: listed apart in the source
# BaF3 [24] = test: Antiproliferative activity against mouse BaF3 cells harbouring wild type ETV6-TRKB incubated for 3 days by CCK8 method; conditions: BaF3, 72 h
# BaF3 [25] = test: Antiproliferative activity against mouse BaF3 cells harbouring ETV6-TRKC G6968 mutant incubated for 3 days by CCK8 method; conditions: BaF3, 72 h
# BaF3 [26] = test: Antiproliferative activity against mouse BaF3 cells harbouring ETV6-TRKC G696A mutant incubated for 3 days by CCK8 method; conditions: BaF3, 72 h
# BaF3 [27] = test: Antiproliferative activity against mouse BaF3 cells harbouring ETV6-TRKB G709C mutant incubated for 3 days by CCK8 method; conditions: BaF3, 72 h
# BaF3 [28] = test: Antiproliferative activity against mouse BaF3 cells harbouring ETV6-TRKC G696C mutant incubated for 3 days by CCK8 method; conditions: BaF3, 72 h
# Chain of High affinity nerve growth factor receptor (Homo sapiens, UniProt P04629, G595R) (P04629 33-796 G595R limits assumed): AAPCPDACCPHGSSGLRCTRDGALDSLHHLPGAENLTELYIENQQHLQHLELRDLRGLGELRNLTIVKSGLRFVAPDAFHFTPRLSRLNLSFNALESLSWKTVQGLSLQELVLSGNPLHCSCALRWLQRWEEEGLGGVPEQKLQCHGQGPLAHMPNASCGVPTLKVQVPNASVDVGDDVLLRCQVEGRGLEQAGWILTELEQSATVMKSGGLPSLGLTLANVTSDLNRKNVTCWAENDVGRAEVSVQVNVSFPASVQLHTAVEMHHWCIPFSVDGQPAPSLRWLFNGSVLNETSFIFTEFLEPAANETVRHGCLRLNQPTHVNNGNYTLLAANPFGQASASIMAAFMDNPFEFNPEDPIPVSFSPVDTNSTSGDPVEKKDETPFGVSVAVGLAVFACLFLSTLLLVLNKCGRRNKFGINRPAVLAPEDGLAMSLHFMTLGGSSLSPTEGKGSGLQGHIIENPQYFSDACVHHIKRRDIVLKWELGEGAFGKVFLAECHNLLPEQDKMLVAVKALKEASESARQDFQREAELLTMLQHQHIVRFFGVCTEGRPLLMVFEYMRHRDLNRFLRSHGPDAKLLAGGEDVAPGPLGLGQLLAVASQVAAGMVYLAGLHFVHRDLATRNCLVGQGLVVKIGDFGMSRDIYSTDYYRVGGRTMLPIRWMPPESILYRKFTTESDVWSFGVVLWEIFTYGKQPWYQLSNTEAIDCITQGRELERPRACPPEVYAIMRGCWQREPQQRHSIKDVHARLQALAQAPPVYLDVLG
# Chain of NT-3 growth factor receptor (Q16288 whole entry, the tested form may be a part): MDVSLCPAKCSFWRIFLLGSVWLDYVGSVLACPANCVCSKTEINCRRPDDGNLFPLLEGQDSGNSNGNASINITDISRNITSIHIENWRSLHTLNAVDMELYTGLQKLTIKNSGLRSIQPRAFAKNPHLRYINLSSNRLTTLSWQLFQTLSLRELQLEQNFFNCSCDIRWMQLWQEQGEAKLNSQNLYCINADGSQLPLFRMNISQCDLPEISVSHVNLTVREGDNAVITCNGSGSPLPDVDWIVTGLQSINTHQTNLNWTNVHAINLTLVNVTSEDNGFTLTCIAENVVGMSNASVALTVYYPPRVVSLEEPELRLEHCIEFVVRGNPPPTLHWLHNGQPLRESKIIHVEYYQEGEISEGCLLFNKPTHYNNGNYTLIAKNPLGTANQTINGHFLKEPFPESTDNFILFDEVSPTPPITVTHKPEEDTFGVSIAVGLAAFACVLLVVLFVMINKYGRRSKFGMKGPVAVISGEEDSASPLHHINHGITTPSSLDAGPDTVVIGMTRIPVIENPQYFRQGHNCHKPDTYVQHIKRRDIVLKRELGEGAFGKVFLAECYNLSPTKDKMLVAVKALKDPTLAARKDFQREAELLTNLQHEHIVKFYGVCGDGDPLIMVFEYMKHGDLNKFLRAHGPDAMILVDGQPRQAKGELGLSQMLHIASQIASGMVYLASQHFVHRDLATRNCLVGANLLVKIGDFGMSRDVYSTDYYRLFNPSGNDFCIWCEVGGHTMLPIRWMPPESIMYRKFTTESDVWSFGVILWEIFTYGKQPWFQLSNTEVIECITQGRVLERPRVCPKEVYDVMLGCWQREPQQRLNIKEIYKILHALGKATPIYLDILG
# Chain of High affinity nerve growth factor receptor (Homo sapiens, UniProt P04629, G667C) (P04629 33-796 G667C limits assumed): as the sequence (P04629 33-796 G595R limits assumed) above, with R563G, G635C counted along it
# Chain of High affinity nerve growth factor receptor (Homo sapiens, UniProt P04629) (P04629 whole entry, the tested form may be a part): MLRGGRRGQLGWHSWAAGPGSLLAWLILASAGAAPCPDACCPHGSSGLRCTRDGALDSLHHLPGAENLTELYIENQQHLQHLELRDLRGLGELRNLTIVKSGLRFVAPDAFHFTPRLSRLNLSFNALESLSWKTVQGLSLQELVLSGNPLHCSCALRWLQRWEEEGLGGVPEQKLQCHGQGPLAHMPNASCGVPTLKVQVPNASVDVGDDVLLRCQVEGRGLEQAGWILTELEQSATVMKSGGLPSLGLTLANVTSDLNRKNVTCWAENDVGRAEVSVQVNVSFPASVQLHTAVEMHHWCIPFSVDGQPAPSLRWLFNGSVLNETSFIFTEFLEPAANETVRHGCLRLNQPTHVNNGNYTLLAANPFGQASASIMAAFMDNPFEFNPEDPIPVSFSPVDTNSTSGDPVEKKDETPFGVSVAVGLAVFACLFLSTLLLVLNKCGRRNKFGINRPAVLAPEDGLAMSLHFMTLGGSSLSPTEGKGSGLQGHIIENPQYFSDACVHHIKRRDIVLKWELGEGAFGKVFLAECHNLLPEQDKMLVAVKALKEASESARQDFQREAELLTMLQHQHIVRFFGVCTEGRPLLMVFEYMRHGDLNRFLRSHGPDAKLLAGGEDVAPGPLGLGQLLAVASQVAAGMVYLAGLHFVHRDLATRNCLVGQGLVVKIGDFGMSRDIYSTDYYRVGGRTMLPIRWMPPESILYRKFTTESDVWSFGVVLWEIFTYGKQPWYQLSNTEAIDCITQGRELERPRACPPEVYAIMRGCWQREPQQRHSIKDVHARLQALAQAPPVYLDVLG
SMILES,IC50 (BaF3 [4]) [nM],IC50 (BaF3 [5]) [nM],IC50 (BaF3 [6]) [nM],IC50 (BaF3 [7]) [nM],IC50 (BaF3 [8]) [nM],IC50 (BaF3 [9]) [nM],IC50 (BaF3 [12]) [nM],IC50 (BaF3 [13]) [nM],IC50 (BaF3 [14]) [nM],IC50 (BaF3 [15]) [nM],IC50 (BaF3 [16]) [nM],IC50 (BaF3 [17]) [nM],IC50 (BaF3 [18]) [nM],IC50 (BaF3 [19]) [nM],IC50 (BaF3 [20]) [nM],IC50 (BaF3 [21]) [nM],IC50 (BaF3 [22]) [nM],IC50 (BaF3 [23]) [nM],IC50 (BaF3 [24]) [nM],IC50 (BaF3 [25]) [nM],also measured
Cc1c2cc(cc1C(=O)Nc1cc(CN3CCN(C)CC3)cc(C(C)(C)C)c1)OCCCCCCCNC(=O)c1ccc3ncc(n3n1)C#C2,34.5,65.6,45.4,5.96,12.2,161,,,,,,,,,,,,,,,IC50 [1]: 19 nM; IC50 [2]: 3.06 nM; IC50 [3]: 5.22 nM; IC50 [10]: 30.6 nM
C[C@H]1CNC(=O)c2cnn3ccc(nc23)N[C@H](C)c2cc(F)ccc2O1 [REPOTRECTINIB],1.39,,1.61,15.7,3.32,1.9,10.8,159,2.15,0.98,5.75,5.4,23.1,8.12,892,19.3,0.88,78.3,0.66,4.59,IC50 (BaF3 [11]): 12.3 nM; IC50 (BaF3 [26]): 1.14 nM; IC50 (BaF3 [27]): 9.44 nM; IC50 (BaF3 [28]): 17 nM
C[C@@H]1CCc2ncc(F)cc2[C@H]2CCCN2c2ccn3ncc(c3n2)C(=O)N1 [SELITRECTINIB],1.35,10.3,31.5,22.2,26.1,1.36,26.4,> 1000,35.8,17.2,5.08,7.48,30.7,37,> 1000,41.1,3.39,423,2.32,11,IC50 (BaF3 [26]): 4.15 nM; IC50 (BaF3 [27]): 42 nM; IC50 (BaF3 [28]): 48.2 nM
